Source: PMC10330001 (Chemistry (Weinheim an der Bergstrasse, Germany), 2023)
Where two headings read alike, the source gives them in different places.

Columns and labels:
[1] = test system: SARS-CoV-2 (USA-WA1/2020); details: read-out: antiviral EC50; comparison value for the Caco2-hACE2 result; ref 9b; cited from earlier work
[2] = molecular target: HCoV-NL63 main protease (Human coronavirus NL63, UniProt P0C6X5); assay: biochemical
[3] = molecular target: T1, HCoV-HKU1 main protease (Human coronavirus HKU1, UniProt P0C6X2); assay: biochemical
T1 sequence (P0C6X2 3335-3637 limits assumed): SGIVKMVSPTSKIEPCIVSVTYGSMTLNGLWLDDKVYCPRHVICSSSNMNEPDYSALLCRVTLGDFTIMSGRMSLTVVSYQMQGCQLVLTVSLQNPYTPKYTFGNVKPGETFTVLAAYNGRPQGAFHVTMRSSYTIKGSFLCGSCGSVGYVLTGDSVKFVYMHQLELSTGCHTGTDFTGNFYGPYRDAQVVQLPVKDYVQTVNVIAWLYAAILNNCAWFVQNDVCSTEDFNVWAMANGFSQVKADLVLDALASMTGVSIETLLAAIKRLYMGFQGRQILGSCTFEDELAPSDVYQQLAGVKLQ

[4] = molecular target: T2, SARS-CoV-2 Mpro (Severe acute respiratory syndrome coronavirus 2, UniProt P0DTD1); assay: biochemical; type: biochemical
[5] = test system: SARS-CoV-2 (USA-WA1/2020); type: cell-based
[6] = molecular target: SARS-CoV main protease (Severe acute respiratory syndrome coronavirus, UniProt P0C6X7); assay: biochemical
[7] = molecular target: T2, SARS-CoV-2 Mpro; assay: cell-based
[8] = molecular target: HCoV-229E main protease (Human coronavirus 229E, UniProt P0C6X1); assay: biochemical
Chain of HCoV-229E main protease (P0C6X1 2966-3267): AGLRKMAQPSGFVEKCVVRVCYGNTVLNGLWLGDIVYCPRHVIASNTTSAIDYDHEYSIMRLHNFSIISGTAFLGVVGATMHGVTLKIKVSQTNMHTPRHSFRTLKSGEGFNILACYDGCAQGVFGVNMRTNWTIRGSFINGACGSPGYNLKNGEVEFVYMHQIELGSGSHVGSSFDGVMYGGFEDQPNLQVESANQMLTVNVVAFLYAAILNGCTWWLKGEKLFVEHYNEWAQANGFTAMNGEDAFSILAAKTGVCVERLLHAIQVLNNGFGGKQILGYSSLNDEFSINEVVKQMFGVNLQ

[9] = molecular target: MERS-CoV main protease (Middle East respiratory syndrome-related coronavirus, UniProt K9N7C7); assay: biochemical
Chain of MERS-CoV main protease (K9N7C7 3248-3553 limits assumed): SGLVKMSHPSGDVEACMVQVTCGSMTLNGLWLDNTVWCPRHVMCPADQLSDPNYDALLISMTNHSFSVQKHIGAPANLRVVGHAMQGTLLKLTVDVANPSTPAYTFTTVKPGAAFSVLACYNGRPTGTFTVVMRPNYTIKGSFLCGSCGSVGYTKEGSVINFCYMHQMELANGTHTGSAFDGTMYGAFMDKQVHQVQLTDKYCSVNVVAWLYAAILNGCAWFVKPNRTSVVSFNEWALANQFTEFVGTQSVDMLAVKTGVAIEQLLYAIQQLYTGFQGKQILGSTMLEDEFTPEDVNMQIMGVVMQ

[10] = molecular target: T3, HCoV-OC43 main protease (Human coronavirus OC43, UniProt P0C6X6); assay: biochemical
T3 sequence (P0C6X6 3247-3549 limits assumed): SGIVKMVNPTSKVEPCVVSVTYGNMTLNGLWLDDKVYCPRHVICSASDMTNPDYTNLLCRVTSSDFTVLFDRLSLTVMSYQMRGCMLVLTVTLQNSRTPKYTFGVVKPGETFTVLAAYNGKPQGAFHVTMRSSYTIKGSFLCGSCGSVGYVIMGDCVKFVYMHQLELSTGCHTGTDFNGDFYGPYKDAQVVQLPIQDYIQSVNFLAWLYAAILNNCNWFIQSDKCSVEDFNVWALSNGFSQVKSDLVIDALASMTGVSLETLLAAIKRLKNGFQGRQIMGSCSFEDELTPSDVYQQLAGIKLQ

[11] = test system: SARS-CoV-2 (USA-WA1/2020); assay: microbe, parasite or virus in culture; type: cell-based

Chain of HCoV-NL63 main protease (P0C6X5 2940-3242 limits assumed): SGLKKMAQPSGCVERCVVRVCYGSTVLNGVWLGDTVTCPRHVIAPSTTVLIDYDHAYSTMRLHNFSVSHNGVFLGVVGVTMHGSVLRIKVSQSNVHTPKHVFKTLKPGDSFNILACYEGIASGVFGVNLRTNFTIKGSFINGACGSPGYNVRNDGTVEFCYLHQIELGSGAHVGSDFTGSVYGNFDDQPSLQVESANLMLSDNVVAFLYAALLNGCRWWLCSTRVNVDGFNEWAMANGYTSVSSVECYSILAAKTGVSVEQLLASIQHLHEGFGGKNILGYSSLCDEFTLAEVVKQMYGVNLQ

SMILES	IC50 ([4]; read-out: SARS-CoV-2 IC50) [nM]	IC50 [6] [nM]	EC50 [7] [µM]	IC50 [8] [nM]	IC50 [2] [nM]	IC50 [9] [µM]	IC50 [10] [nM]	IC50 [3] [nM]	IC50 [4] [nM]	also measured
CC(C)C[C@H](NC(=O)OCc1ccccc1)C(=O)N[C@@H](CC1CCNC1=O)C(O)S(=O)(=O)O (stereo partly drawn) [GC376, reference compound]										EC50 [1]: 2900 nM; IC50 ([2]; read-out: HCoV-NL63 IC50): 120 ± 20 nM; IC50 ([3]; read-out: HKU1 IC50): 12 ± 30 nM
CC(C)C[C@@H](C(=O)N[C@H](C=O)C[C@@H]1CCNC1=O)N1C[C@@H](NC(=O)OCc2ccccc2)CC1=O [M-1-1, Benzyl ((S)-1-((S)-4-methyl-1-oxo-1-(((S)-1-oxo-3-((S)-2-oxopyrrolidin-3-yl)propan-2-yl)amino)pentan-2-yl)-5-oxopyrrolidin-3-yl) carbamate]	510									
CC(C)C[C@@H](C(=O)N[C@H](C=O)C[C@@H]1CCNC1=O)N1C[C@@H](NC(=O)OCc2ccccc2)CCC1=O [M-1-3, Benzyl ((S)-1-((S)-4-methyl-1-oxo-1-(((S)-1-oxo-3-((S)-2-oxopyrrolidin-3-yl)propan-2-yl)amino)pentan-2-yl)-6-oxopiperidin-3-yl)carbamate]		160 ± 10	> 60	62 ± 10	890 ± 10	0.41 ± 0.05	710 ± 20	33 ± 10	80 ± 10	antiviral activity [5]: not active; antiviral activity [11]: not active
O=C[C@H](C[C@@H]1CCNC1=O)NC(=O)[C@H](CC1CCCCC1)N1C[C@@H](NC(=O)OCc2ccccc2)CCC1=O [M-1-4, Benzyl ((S)-1-((S)-3-cyclohexyl-1-oxo-1-(((S)-1-oxo-3-((S)-2-oxopyrrolidin-3-yl)propan-2-yl)amino)propan-2-yl)-6-oxopiperidin-3-yl)carbamate]		730 ± 100	18	610 ± 90	9580 ± 1790	> 20	3670 ± 630	1210 ± 200	950 ± 40	EC50 ([11]; Severe acute respiratory syndrome coronavirus 2, read-out: antiviral EC50): 19 µM
O=C[C@H](C[C@@H]1CCNC1=O)NC(=O)[C@H](Cc1cccc(F)c1)N1C[C@@H](NC(=O)OCc2ccccc2)CCC1=O [M-1-5, Benzyl ((S)-1-((S)-3-(3-fluorophenyl)-1-oxo-1-(((S)-1-oxo-3-((S)-2-oxopyrrolidin-3-yl)propan-2-yl)amino)propan-2-yl)-6-oxopiperidin-3-yl)carbamate]			49.6							
O=C[C@H](C[C@@H]1CCNC1=O)NC(=O)[C@H](CC1CC1)N1C[C@@H](NC(=O)OCc2ccccc2)CCC1=O [M-1-6, Benzyl ((S)-1-((S)-3-cyclopropyl-1-oxo-1-(((S)-1-oxo-3-((S)-2-oxopyrrolidin-3-yl)propan-2-yl)amino)propan-2-yl)-6-oxopiperidin-3-yl)carbamate]		250 ± 20	> 60	180 ± 20	480 ± 60	0.85 ± 0.21	180 ± 10	120 ± 20	80 ± 10	
CC(C)C[C@@H](C(=O)N[C@H](C=O)C[C@@H]1CCNC1=O)N1C[C@@H](NC(=O)OCc2cc(F)cc(F)c2)CCC1=O [M-1-7, 3,5-difluorobenzyl ((S)-1-((S)-4-methyl-1-oxo-1-(((S)-1-oxo-3-((S)-2-oxopyrrolidin-3-yl)propan-2-yl)amino)pentan-2-yl)-6-oxopiperidin-3-yl)carbamate]			27.3						190	
CC(C)C[C@@H](C(=O)N[C@@H](C[C@@H]1CCNC1=O)C(=O)C(=O)NC1CC1)N1C[C@@H](NC(=O)OCc2ccccc2)CC1=O [M-2-3, Benzyl ((S)-1-((S)-1-(((S)-4-(cyclopropylamino)-3,4-dioxo-1-((S)-2-oxopyrrolidin-3-yl)butan-2-yl)amino)-4-methyl-1-oxopentan-2-yl)-5-oxopyrrolidin-3-yl)carbamate]		2260 ± 390		690 ± 80	830 ± 100	8.02 ± 2.07	120 ± 10	390 ± 30	1310 ± 100	
CC(C)C[C@@H](C(=O)N[C@@H](C[C@@H]1CCNC1=O)C(=O)C(=O)NC1CC1)N1C[C@@H](NC(=O)OCc2ccccc2)CCC1=O [M-2-5, Benzyl ((S)-1-((S)-1-(((S)-4-(cyclopropylamino)-3,4-dioxo-1-((S)-2-oxopyrrolidin-3-yl)butan-2-yl)amino)-4-methyl-1-oxopentan-2-yl)-6-oxopiperidin-3-yl) carbamate]	3580									
O=C(N[C@H]1CCC(=O)N([C@@H](CC2CCCCC2)C(=O)N[C@@H](C[C@@H]2CCNC2=O)C(=O)C(=O)NC2CC2)C1)OCc1ccccc1 [M-2-6, Benzyl ((S)-1-((S)-3-cyclohexyl-1-(((S)-4-(cyclopropylamino)-3,4-dioxo-1-((S)-2-oxopyrrolidin-3-yl)butan-2-yl)amino)-1-oxopropan-2-yl)-6-oxopiperidin-3-yl) carbamate]	4430									
O=C(N[C@H]1CCC(=O)N([C@@H](Cc2cccc(F)c2)C(=O)N[C@@H](C[C@@H]2CCNC2=O)C(=O)C(=O)NC2CC2)C1)OCc1ccccc1 [M-2-7, Benzyl ((S)-1-((S)-1-(((S)-4-(cyclopropylamino)-3,4-dioxo-1-((S)-2-oxopyrrolidin-3-yl)butan-2-yl)amino)-3-(3-fluorophenyl)-1-oxopropan-2-yl)-6-oxopiperidin-3-yl) carbamate]	3990									
O=C(N[C@H]1CCC(=O)N([C@@H](CC2CC2)C(=O)N[C@@H](C[C@@H]2CCNC2=O)C(=O)C(=O)NC2CC2)C1)OCc1ccccc1 [M-2-8, Benzyl ((S)-1-((S)-3-cyclopropyl-1-(((S)-4-(cyclopropylamino)-3,4-dioxo-1-((S)-2-oxopyrrolidin-3-yl)butan-2-yl)amino)-1-oxopropan-2-yl)-6-oxopiperidin-3-yl)carbamate]		3880 ± 670		5670 ± 490	10800 ± 2210	> 20	2600 ± 450	2230 ± 460	2140 ± 90	
